Measurements published in US8552002B2 (Novartis AG, priority 2004, dated 2013).
Like-named read-outs stand apart in the source and are kept apart here.

Tests used:
KDR = target: T1, KDR (Homo sapiens, UniProt P35968); experiment: Inhibitory activity against KDR (VEGF-R2), in vitro data of Examples 170 and 207; format: biochemical; details: 10 μM, read-out: KDR inhibition at 10 μM
T1 construct: expressed in transfected cells; host or cells: CHO cells
How it was run: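 KDR tyrosine phosphorylation detected by luminescence after overnight 4° C capture of 20 μg lysate protein with PY20:AP antibody. Lysates came from cells given compound for 2 h at 37° C, then final 20 ng/ml VEGF for 5 min; compound-free medium as control.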

c-Abl = c-Abl (Homo sapiens, UniProt P00519); experiment: Inhibitory activity against c-Abl (Example 207); format: biochemical; details: Examples 171 to 206
Chain of c-Abl (P00519 whole entry): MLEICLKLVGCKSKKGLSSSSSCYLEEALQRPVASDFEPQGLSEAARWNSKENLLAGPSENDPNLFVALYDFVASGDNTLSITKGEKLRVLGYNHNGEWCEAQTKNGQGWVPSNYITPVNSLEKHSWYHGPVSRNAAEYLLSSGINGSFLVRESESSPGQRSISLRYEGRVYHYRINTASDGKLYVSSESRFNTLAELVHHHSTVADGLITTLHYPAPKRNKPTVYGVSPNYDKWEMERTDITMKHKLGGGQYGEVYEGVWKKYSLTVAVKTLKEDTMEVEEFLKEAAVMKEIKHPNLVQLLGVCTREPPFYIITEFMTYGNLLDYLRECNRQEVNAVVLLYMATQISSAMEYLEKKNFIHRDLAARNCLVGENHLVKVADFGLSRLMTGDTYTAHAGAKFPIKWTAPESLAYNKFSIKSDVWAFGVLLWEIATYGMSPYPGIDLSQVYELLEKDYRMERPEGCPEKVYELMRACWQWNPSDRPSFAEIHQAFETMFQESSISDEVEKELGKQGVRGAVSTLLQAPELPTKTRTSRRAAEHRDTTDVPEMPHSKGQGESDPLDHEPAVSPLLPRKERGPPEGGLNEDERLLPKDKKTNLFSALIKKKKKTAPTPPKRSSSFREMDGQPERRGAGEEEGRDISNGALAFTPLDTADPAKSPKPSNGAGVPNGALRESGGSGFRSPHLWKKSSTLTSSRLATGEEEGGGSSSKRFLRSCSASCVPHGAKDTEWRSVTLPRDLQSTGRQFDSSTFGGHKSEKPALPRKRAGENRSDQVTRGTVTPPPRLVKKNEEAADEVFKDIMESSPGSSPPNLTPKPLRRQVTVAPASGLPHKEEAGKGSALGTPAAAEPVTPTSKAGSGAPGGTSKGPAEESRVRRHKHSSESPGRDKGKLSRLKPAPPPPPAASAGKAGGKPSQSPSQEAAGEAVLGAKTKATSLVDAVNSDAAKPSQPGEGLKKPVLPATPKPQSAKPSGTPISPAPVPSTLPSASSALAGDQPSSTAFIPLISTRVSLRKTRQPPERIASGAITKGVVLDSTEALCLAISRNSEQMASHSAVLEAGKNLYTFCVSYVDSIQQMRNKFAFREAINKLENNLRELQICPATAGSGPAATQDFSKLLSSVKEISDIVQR

FGFR3 (K650E) = target: T2, FGFR3 (K650E) (Homo sapiens, UniProt P22607, K650E); experiment: Recombinant GST-FGFR-3-K650E tyrosine kinase assay (33P into poly(Glu,Tyr)); format: biochemical; details: 10 μM
T2 construct: amino acids 411-806 of the cytoplasmic domain of human FGFR-3, N-terminally fused to GST; made in house; host or cells: Sf9 insect cells (baculovirus)
T2 sequence (P22607 411-806 K650E): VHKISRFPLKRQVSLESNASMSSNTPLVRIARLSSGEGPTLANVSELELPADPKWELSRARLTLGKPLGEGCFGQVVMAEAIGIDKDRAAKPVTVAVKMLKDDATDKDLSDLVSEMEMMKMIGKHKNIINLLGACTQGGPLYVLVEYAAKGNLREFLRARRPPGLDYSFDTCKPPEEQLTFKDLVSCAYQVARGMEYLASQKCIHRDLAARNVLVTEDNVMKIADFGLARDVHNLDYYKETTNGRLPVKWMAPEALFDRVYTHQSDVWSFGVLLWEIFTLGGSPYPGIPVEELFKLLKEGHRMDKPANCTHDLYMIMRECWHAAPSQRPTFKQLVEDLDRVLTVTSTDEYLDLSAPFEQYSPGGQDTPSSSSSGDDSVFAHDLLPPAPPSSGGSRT

wild type Bcr-abl = target: T3, wild type Bcr-abl (Homo sapiens, UniProt P00519); experiment: Antiproliferative effect on cells expressing wild type Bcr-abl; format: cell-based; details: cell proliferation
T3 construct: the major C-terminal part (exons 2-11) of the c-abl gene; expressed in transfected cells; host or cells: murine 32D (32D-p210) or Ba/F3 cells; the other entry of the earlier key: BCR (P11274, Breakpoint cluster region protein)
Description: 32D-p210 cells are plated into 96 well TC plates at a density of 15,000 cells per well. 50 μL of two fold serial dilutions of the test compound (Cmax is 40 μM) are added to each well (STI571 is included as a positive control). After incubating the cells for 48 hours at 37° C., 5% CO2, 15 μL of MTT (Promega) is added to each well and the cells are incubated for an additional 5 hours. The optical density at 570 nm is quantified spectrophotometrically and IC50 values, the concentration of compound required for 50% inhibition, determined from a dose response curve.
Compounds of the invention are tested for their antiproliferative effect on Ba/F3 cells expressing either wild type or the mutant forms of BCR-Abl (G250E, E255V, T315I, F317L, M351T) that confers resistance or diminished sensitivity to STI571. The antiproliferative effect of these compounds on the mutant-BCR-Abl expressing cells and on the non transformed cells were tested at 10, 3.3, 1.1 and 0.37 μM as described above (in media lacking IL3). The IC50 values of the compounds lacking toxicity on the untransformed cells were determined from the dose response curves obtained as describe above.

FGFR35 [1] = target: T4, FGFR35 (Homo sapiens, UniProt P22607); experiment: FGFR35 (enzymatic assay), HTRF; format: biochemical; parameters: purchased Upstate; details: purified FGFR35, 3 μM ATP; read-out: IC50 for the FGFR35 enzyme assay
Description: Kinase activity assay with purified FGFR35 (Upstate) is carried out in a final volume of 10 μL containing 0.25 μg/mL of enzyme in kinase buffer (30 mM Tris-HCl pH7.5, 15 mM MgCl2, 4.5 mM MnCl2, 15 μM Na3VO4 and 50 μg/mL BSA), and substrates (5 μg/mL biotin-poly-EY(Glu, Tyr) (CIS-US, Inc.) and 3 μM ATP). Two solutions are made: the first solution of 5 μl contains the FGFR35 enzyme in kinase buffer was first dispensed into 384—format ProxiPlate® (Perkin-Elmer) followed by adding 50 nL of compounds dissolved in DMSO, then 5 μl of second solution contains the substrate (poly-EY) and ATP in kinase buffer was added to each wells. The reactions are incubated at room temperature for one hour, stopped by adding 10 μL of HTRF detection mixture, which contains 30 mM Tris-HCl pH7.5, 0.5 M KF, 50 mM ETDA, 0.2 mg/mL BSA, 15 μg/mL streptavidin-XL665 (CIS-US, Inc.) and 150 ng/mL cryptate conjugated anti-phosphotyrosine antibody (CIS-US, Inc.). After one hour of room temperature incubation to allow for streptavidin-biotin interaction, time resolved florescent signals are read on Analyst GT (Molecular Devices Corp.). IC50 values are calculated by linear regression analysis of the percentage inhibition of each compound at 12 concentrations (1:3 dilution from 50 μM to 0.28 nM).
Target sequence in this assay (P22607 23-806): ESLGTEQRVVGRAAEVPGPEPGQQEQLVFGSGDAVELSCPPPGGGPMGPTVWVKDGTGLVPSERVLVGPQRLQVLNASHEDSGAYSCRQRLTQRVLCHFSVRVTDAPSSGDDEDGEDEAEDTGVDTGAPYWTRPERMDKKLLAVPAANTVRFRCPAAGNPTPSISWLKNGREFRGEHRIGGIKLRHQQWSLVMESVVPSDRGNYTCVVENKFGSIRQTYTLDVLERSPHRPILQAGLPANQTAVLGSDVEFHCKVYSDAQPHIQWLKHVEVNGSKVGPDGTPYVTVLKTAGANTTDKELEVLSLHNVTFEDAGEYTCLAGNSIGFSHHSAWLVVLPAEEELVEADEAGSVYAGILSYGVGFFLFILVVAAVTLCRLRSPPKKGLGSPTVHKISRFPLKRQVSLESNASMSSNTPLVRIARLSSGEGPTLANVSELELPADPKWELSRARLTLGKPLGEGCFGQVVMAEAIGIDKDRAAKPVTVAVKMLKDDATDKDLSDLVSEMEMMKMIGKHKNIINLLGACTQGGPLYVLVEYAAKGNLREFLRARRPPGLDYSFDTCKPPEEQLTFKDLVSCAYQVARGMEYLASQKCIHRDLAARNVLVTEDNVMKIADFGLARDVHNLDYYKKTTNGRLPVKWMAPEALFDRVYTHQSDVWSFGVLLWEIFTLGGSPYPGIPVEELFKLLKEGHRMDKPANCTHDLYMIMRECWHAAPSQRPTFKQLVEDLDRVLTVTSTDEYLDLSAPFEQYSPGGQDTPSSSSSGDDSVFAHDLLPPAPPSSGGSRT

FGFR35 [2] = target: T4, FGFR35; experiment: FGFR35 (cellular assay), proliferation of Ba/F3-TEL-FGFR35 cells; format: cell-based; parameters: fused on or other part: N-terminal part of TEL (ETV6), which acts as the oligomerising partner; it is fused to the part of FGFR3 that carries the kinase; P41212 (Transcription factor ETV6); details: 48 hours, read-out: IC50 for the FGFR35 cellular assay
Description: Compounds of the invention are tested for their ability to inhibit transformed Ba/F3-TEL-FGFR35 cells proliferation, which is depended on FGFR35 cellular kinase activity. Ba/F3-TEL-FGFR35 are cultured up to 800,000 cells/mL in suspension, with RPMI 1640 supplemented with 10% fetal bovine serum as the culture medium. Cells are dispensed into 384-well format plate at 5000 cell/well in 50 μL culture medium. Compounds of the invention are dissolved and diluted in dimethylsulfoxide (DMSO). Twelve points 1:3 serial dilutions are made into DMSO to create concentrations gradient ranging typically from 10 mM to 0.05 μM. Cells are added with 50 nL of diluted compounds and incubated for 48 hours in cell culture incubator. AlamarBlue® (TREK Diagnostic Systems), which can be used to monitor the reducing environment created by proliferating cells, are added to cells at final concentration of 10%. After additional four hours of incubation in a 37° C. cell culture incubator, fluorescence signals from reduced AlamarBlue® (Excitation at 530 nm, Emission at 580 nm) are quantified on Analyst GT (Molecular Devices Corp.). IC50 values are calculated by linear regression analysis of the percentage inhibition of each compound at 12 concentrations.
Target sequence in this assay (P22607 472-761 limits assumed, stated change not applied): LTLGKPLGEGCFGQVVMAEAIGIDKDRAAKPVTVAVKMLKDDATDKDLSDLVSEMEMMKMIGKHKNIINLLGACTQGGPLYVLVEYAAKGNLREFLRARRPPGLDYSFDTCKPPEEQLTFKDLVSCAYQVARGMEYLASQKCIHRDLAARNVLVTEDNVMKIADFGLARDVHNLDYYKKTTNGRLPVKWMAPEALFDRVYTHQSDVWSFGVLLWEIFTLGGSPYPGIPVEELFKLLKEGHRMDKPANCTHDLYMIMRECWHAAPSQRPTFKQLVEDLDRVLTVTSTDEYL

PDGFRβ = PDGFRβ (Homo sapiens, UniProt P09619); experiment: Inhibition of PDGFRβ; format: biochemical
Description: Compounds selectively inhibiting the proliferation of these BCR-Abl transformed cells are tested for anti-proliferative activity on Ba/F3 cells expressing either wild type or the mutant forms of Bcr-abl. In addition, compounds are assayed to measure their capacity to inhibit FGFR35 (in an enzyme and cellular assay), FLT3, PDGFRβ, trkB, c-SRC, BMX, SGK, Tie2, Lck, JNK2α2, MKK4, c-RAF, MKK6, SAPK2α and SAPK2β kinases.

Tek = target: T5, Tek (Homo sapiens, UniProt Q02763); experiment: Recombinant GST-Tek (Tie-2) tyrosine kinase assay (33P into poly(Glu,Tyr)); format: biochemical; details: Examples 1 to 169
T5 construct: amino acids 773-1124 of the cytoplasmic kinase domain of human Tek, N-terminally fused to GST; made in house; host or cells: Sf9 insect cells (baculovirus)
T5 sequence (Q02763 773-1124): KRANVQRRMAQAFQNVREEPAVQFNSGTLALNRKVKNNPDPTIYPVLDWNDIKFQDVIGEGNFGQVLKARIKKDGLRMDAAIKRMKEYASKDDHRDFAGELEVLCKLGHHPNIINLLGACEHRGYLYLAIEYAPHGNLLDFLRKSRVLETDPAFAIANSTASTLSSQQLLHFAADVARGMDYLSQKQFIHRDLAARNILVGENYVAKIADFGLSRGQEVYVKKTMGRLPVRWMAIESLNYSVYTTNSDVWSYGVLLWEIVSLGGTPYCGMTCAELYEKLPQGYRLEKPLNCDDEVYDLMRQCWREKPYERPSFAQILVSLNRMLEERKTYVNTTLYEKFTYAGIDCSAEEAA
How it was run: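 Read-out is filter-bound 33P in poly(Glu,Tyr) 4:1 (10 μg/mL) after 30 min at ambient temperature with 4.0 μM ATP. Enzyme: 150 ng human GST-Tek (aa 773-1124) from insect cells, in Tris pH 7.5 with Mn2+/Mg2+ and vanadate. IC50 fitted linearly over four concentrations, usually 0.01-10 μM.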

[3] = Examples 171 to 206, read-out: FGFR3 inhibition at 10 μM
[4] = Examples 1 to 169, read-out: FGFR3 (K650E) inhibition at 10 μM

T1 sequence (P35968 20-1356): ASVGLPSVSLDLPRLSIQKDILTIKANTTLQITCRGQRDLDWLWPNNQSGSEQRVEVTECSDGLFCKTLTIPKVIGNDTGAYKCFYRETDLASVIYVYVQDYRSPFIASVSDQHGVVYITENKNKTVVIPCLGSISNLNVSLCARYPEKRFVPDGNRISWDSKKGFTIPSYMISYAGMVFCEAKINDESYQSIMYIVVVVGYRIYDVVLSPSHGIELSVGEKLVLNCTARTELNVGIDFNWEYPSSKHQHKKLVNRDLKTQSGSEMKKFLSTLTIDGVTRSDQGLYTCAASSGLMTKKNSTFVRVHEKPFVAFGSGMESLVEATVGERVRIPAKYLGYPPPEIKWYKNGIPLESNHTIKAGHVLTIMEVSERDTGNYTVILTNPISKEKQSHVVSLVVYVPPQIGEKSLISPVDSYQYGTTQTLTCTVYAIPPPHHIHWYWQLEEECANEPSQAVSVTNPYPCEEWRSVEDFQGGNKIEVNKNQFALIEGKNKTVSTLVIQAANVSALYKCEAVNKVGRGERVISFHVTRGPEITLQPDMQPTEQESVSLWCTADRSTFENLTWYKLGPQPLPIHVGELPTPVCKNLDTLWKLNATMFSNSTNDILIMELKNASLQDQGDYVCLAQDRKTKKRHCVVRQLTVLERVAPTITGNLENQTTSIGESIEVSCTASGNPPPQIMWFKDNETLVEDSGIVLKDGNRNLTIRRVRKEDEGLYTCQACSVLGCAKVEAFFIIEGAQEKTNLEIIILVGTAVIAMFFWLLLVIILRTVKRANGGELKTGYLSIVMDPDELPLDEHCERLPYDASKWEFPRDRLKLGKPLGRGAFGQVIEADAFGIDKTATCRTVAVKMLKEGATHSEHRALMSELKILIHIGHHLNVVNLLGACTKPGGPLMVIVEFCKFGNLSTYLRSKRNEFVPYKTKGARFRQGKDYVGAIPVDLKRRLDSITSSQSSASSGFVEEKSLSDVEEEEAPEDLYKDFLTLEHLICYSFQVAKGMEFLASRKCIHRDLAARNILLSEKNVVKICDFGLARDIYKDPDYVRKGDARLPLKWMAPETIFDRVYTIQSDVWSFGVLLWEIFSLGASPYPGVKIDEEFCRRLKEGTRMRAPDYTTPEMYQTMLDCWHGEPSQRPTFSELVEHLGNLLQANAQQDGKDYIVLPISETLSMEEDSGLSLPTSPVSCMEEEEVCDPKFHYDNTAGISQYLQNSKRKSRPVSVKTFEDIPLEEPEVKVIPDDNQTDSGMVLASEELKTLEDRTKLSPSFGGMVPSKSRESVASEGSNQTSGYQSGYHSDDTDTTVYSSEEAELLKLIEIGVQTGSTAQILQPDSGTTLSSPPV

Structure (SMILES)	inhibition at 10 µM (KDR; Examples 171 to 206)	inhibition at 10 µM (c-Abl)	melting point	inhibition at 10 µM (FGFR3 (K650E); [3])	IC50 (wild type Bcr-abl)	IC50 (FGFR35 [1])	GI50 (FGFR35 [2])	IC50 (PDGFRβ)	inhibition at 10 µM (KDR; Examples 1 to 169)	inhibition at 10 µM (FGFR3 (K650E); [4])	inhibition at 10 µM (Tek)
Cc1ccc(NC(=O)c2cccc(C(F)(F)F)c2)cc1NC(=O)N(C)c1cc(Nc2ccc(N3CCN(C)CC3)cc2)ncn1 [Example 171, N-[4-Methyl-3-(3-methyl-3-{6-[4-(4-methyl-piperazin-1-yl)-phenyl-amino]-pyrimidin-4-yl}-ureido)-phenyl]-3-trifluoromethyl-benzamide]	87 to 100%	79 to 100%	189.5 to 191 °C	56 to 98%							
CN1CCN(c2cccc(Nc3cc(NC(=O)Nc4c(Cl)cccc4Cl)ncn3)c2)CC1 [Example 5, 1-(2,6-Dichloro-phenyl)-3-{6-[3-(4-methyl-piperazin-1-yl)-phenylamino]-pyrimidin-4-yl}-urea]			209 to 212 °C						67 to 100%	27 to 100%	12 to 100%
O=C(Nc1cc(N[C@H]2CC[C@H](O)CC2)ncn1)Nc1c(Cl)cc(Cl)cc1Cl [Example 88, 1-[6-((trans)-4-Hydroxy-cyclohexylamino)-pyrimidin-4-yl]-3-(2,4,6-trichloro-phenyl)-urea]			171 to 173 °C						67 to 100%	27 to 100%	12 to 100%
CN1CCN(Cc2ccc(Nc3cc(NC(=O)Nc4c(Cl)cccc4Cl)ncn3)cc2)CC1 [Example 83, 1-(2,6-Dichloro-Phenyl)-3-{6-[4-(4-methyl-piperazin-1-ylmethyl)-phenylamino]-pyrimidin-4-yl}-urea]			199 to 201 °C						67 to 100%	27 to 100%	12 to 100%

More lines, now with the values ahead:

inhibition at 10 µM (KDR; Examples 171 to 206)	inhibition at 10 µM (c-Abl)	melting point	inhibition at 10 µM (FGFR3 (K650E); [3])	IC50 (wild type Bcr-abl)	IC50 (FGFR35 [1])	GI50 (FGFR35 [2])	IC50 (PDGFRβ)	inhibition at 10 µM (KDR; Examples 1 to 169)	inhibition at 10 µM (FGFR3 (K650E); [4])	inhibition at 10 µM (Tek)	Structure (SMILES)
				14.9 nM	65 nM	49 nM	0.4 nM				Cc1ccc(NC(=O)c2cccc(C(F)(F)F)c2)cc1NC(=O)N(CCN1CCOCC1)c1cc(N)ncn1 [Example 214, N-{3-[3-(6-Amino-pyrimidin-4-yl)-3-(2-morpholin-4-yl-ethyl)-ureido]-4-methyl-phenyl}-3-trifluoromethyl-benzamide]
		280 to 282 °C						67 to 100%	27 to 100%	12 to 100%	CN1CCN(c2ccc(N(C(=O)Nc3cccc(Cl)c3Cl)c3cc(N)ncn3)cc2)CC1 [Example 76, 1-(6-Amino-pyrimidin-4-yl}-3-(2,3-dichloro-phenyl)-1-[4-(4-methyl-piperazin-1-yl)-phenyl]-urea]
87 to 100%	79 to 100%	191.5 to 193 °C	56 to 98%								Cc1ccc(NC(=O)c2ccc(CN3CCN(C)CC3)c(C(F)(F)F)c2)cc1NC(=O)N(C)c1cc(N)ncn1 [Example 194, N-{3-[3-(6-Amino-pyrimidin-4-yl)-3-methyl-ureido]-4-methyl-phenyl}-4-(4-methyl-piperazin-1-ylmethyl)-3-trifluoromethyl-benzamide]
